# In paper PMC3389674, “Comparison of Soluble Guanylate Cyclase Stimulators and Activators in Models of Cardiovascular Disease Associated with Oxidative Stress” (Frontiers in Pharmacology, 2012):
# How the values were obtained:
# OATP1B1 = target: T1, OATP1B1 (Homo sapiens, UniProt Q9Y6L6); experiment: in vitro selectivity profile: OATP1B1 transporter activity; type: cell-based
# T1 sequence (Q9Y6L6 1-691): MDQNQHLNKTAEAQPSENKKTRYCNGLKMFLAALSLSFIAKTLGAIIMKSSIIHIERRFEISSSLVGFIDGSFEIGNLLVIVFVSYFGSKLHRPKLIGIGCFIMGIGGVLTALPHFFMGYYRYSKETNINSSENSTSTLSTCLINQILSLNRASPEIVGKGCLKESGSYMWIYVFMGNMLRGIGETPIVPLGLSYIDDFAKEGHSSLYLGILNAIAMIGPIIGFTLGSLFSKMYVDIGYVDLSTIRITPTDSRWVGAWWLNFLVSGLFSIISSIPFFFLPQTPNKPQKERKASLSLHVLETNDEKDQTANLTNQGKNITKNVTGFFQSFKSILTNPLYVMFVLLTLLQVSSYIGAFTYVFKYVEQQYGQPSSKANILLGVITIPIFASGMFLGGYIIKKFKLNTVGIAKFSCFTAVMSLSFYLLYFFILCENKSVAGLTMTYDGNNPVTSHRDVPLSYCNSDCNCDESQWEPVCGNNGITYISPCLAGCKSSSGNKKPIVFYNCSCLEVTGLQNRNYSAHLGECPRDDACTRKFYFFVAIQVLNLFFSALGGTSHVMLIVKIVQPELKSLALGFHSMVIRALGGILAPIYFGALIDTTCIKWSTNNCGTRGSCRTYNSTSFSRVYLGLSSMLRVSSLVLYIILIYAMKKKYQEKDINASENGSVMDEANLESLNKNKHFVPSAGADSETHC
# Protocol: (§1) The secondary pharmacological profile (i.e., sGC-independent activity) of GSK2181236A was assessed in cell-based functional assays by characterizing the interaction between GSK2181236A and 38 distinct human enzymes, ion channels, transporters, and G-protein-coupled receptors including 5-HT (5-HT1B/2A/2C/3), 5-HT transporter (SERT), adenosine (A2a), adrenergic (α1B/2C, β2), Aurora B kinase, cycoloxygenase-2 (COX-2), CaV1.2, cytochrome P450 (CYP2C19, 2D6, and 3A4), dopamine (D2), dopamine transporter (DAT), gamma-aminobutyric acid (GABAA), glycogen synthase kinase-3 (GSK3β) histamine (H1), KV1.5, KV7.1, KV11.1, lymphocyte-specific protein tyrosine kinase (LCK), L-monoamine oxidase (MAO-B) muscarinic (M1/2), NaV1.5, nicotinic (α1 nAChR), noradrenaline transporter (NET), opioid (κ, μ), organic anion transporting polypeptide C (OATP1B1), phosphodiesterase 5 (PDE5), phosphatidylinositol 3-kinase (PI3Kγ), pregnane X receptor (PXR), tachykinin (NK1), and vasopressin (V1a).
# [1] = tested on: all other proteins tested (human enzymes, ion channels, transporters, and G-protein-coupled receptors); experiment: in vitro selectivity profile: cell-based functional assays, other non-sGC proteins
# Protocol: as §1
# human sGC = target: T2, human sGC (Homo sapiens, UniProt Q02153); experiment: primary cell-free human sGC enzyme assay (cGMP formation); type: biochemical; conditions: data not shown
# T2 sequence (Q02153 1-619): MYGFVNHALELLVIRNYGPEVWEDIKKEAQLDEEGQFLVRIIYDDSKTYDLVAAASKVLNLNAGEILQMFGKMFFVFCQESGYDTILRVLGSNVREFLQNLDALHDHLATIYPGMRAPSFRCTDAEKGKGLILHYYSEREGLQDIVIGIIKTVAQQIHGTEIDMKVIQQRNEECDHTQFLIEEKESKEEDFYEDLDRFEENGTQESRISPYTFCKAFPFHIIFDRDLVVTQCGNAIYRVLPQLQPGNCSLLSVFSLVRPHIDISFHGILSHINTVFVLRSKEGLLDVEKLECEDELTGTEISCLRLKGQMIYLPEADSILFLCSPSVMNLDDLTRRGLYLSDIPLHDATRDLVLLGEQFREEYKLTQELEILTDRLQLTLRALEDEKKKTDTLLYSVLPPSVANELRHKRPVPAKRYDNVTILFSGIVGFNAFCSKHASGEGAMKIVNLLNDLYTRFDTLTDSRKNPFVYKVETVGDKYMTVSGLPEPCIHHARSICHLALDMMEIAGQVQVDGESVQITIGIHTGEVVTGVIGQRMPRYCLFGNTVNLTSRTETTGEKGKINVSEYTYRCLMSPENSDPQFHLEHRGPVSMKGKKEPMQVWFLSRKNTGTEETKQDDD
# T2 sequence (Q02108 1-690 partner): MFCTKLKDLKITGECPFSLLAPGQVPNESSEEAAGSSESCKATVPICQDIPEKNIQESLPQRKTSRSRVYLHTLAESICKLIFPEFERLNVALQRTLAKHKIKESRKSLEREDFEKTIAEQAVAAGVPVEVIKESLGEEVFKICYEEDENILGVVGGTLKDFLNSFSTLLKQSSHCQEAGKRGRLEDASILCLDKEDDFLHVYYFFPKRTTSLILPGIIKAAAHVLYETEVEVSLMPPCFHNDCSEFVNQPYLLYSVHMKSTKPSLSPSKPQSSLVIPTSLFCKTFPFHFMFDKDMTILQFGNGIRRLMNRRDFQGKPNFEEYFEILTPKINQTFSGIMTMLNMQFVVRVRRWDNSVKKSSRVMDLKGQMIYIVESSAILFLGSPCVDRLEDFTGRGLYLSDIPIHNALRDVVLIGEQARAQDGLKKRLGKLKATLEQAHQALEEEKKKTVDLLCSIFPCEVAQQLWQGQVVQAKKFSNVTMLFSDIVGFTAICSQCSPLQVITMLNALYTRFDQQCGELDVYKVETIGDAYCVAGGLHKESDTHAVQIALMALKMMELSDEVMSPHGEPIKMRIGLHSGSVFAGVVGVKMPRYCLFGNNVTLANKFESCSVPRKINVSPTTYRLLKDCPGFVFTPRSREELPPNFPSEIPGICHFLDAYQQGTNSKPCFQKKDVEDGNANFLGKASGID
smiles,measurement,setting,value
"Cc1cc(-c2ccc(OC(F)(F)F)cc2)ccc1COc1ccccc1-c1cccc(-n2ncc(C(=O)O)c2C(F)(F)F)n1 [GSK2181236A, 1-(6-{2-[({3-methyl-4′-[(trifluoromethyl)oxy]-4-biphenylyl}methyl)oxy]phenyl}-2-pyridinyl)-5-(trifluoromethyl)-1H-pyrazole-4-carboxylic acid]",selectivity ratio,"OATP1B1; human, cell-based functional assay (human OATP1B1 transporter), vs P-VASP EC50 12.7 nM, read-out: selectivity for sGC over OATP1B1",23
same,IC50,"OATP1B1; read-out: IC50, inhibition of transporter activity",300 nM
same,Interactions (EC50s or IC50s) at all other proteins tested,[1],≥ 2500 nM
same,interaction with sGC more potent than any other non-sGC protein tested,[1]; cell-based assays,at least 23 fold
same,selectivity for sGC over all other tested proteins,[1]; vs P-VASP EC50 12.7 nM,≥ 197 fold
same,EC50,human sGC,25 nM
